Measured values: ChEMBL document CHEMBL1287714, “5-amino-pyrazoles as potent and selective p38α inhibitors” (Bioorg Med Chem Lett, 2010)
Values after ≈ are worked out from the molar mass of the structure shown. One block for each molecule: values may come before it.

Assays:
PBMC = test: Antiinflammatory activity in human PBMC assessed as inhibition of LPS-induced TNFalpha production; type: functional, cell-based
[1] = biological target: Mitogen-activated protein kinase 14 (Homo sapiens, UniProt Q16539); test: Inhibition of human recombinant p38alpha
[2] = Metabolic rate in human liver microsomes at 3 uM after 10 mins
[3] = biological target: Protein kinase C delta type (Homo sapiens, UniProt Q05655); test: Inhibition of PKCdelta
[4] = biological target: Signal transducer and activator of transcription 3 (Homo sapiens, UniProt P40763); test: Inhibition of STAT3
[5] = biological target: Vascular endothelial growth factor receptor 2 (Homo sapiens, UniProt P35968); test: Inhibition of KDR
[6] = biological target: Tyrosine-protein kinase BTK (Homo sapiens, UniProt Q06187); test: Inhibition of Btk
[7] = biological target: Insulin-like growth factor 1 receptor (Homo sapiens, UniProt P08069); test: Inhibition of IGF-1R
[8] = biological target: Protein kinase C alpha type (Homo sapiens, UniProt P17252); test: Inhibition of PKCalpha
[9] = biological target: Tyrosine-protein kinase ITK/TSK (Homo sapiens, UniProt Q08881); test: Inhibition of Itk
Cytochrome P450 2C9 = Cytochrome P450 2C9 (Homo sapiens, UniProt P11712); test: Inhibition of CYP2C9; type: ADME
Cytochrome P450 2C19 = Cytochrome P450 2C19 (Homo sapiens, UniProt P33261); test: Inhibition of CYP2C19; type: ADME
Mus musculus = test: Antiinflammatory activity in mouse plasma assessed as inhibition of LPS-induced TNFalpha production at 5 mg/kg, po administered 24 hrs before LPS challenge measured after 90 mins; type: functional
[10] = Metabolic rate in rat liver microsomes at 3 uM after 10 mins
[11] = biological target: Fibroblast growth factor receptor 1 (Homo sapiens, UniProt P11362); test: Inhibition of FGFR1
[12] = Metabolic rate in mouse liver microsomes at 3 uM after 10 mins
[13] = biological target: Tyrosine-protein kinase JAK3 (Homo sapiens, UniProt P52333); test: Inhibition of Jak3
[14] = biological target: Diacylglycerol O-acyltransferase 1 (Homo sapiens, UniProt O75907); test: Inhibition of DGAT
Cytochrome P450 1A2 = Cytochrome P450 1A2 (Homo sapiens, UniProt P05177); test: Inhibition of CYP1A2; type: ADME
[15] = Inhibition of CaMK2
[16] = Apparent permeability across human Caco-2 cells; type: ADME, cell-based; conditions: read-out: permeability
[17] = biological target: MAP kinase-activated protein kinase 2 (Homo sapiens, UniProt P49137); test: Inhibition of MK2
[18] = biological target: Voltage-gated inwardly rectifying potassium channel KCNH2 (Homo sapiens, UniProt Q12809); test: Inhibition of human ERG by flux assay
[19] = Aqueous solubility of the compound at pH 6.5; type: physicochemical
[20] = Inhibition of GSK3
[21] = Inhibition of PDGF receptor
Cytochrome P450 3A4 = Cytochrome P450 3A4 (Homo sapiens, UniProt P08684); test: Inhibition of CYP3A4; type: ADME
[22] = biological target: Non-receptor tyrosine-protein kinase TYK2 (Homo sapiens, UniProt P29597); test: Inhibition of Tyk2
[23] = Inhibition of VEGF receptor
[24] = biological target: Serine/threonine-protein kinase PLK1 (Homo sapiens, UniProt P53350); test: Inhibition of PLK1
[25] = Inhibition of Lckzeta
[26] = biological target: Protein kinase C zeta type (Homo sapiens, UniProt Q05513); test: Inhibition of PKCzeta
Cytochrome P450 2D6 = Cytochrome P450 2D6 (Homo sapiens, UniProt P10635); test: Inhibition of CYP2D6; type: ADME
[27] = Inhibition of PKCtau

Chain of Mitogen-activated protein kinase 14 (Q16539 whole entry): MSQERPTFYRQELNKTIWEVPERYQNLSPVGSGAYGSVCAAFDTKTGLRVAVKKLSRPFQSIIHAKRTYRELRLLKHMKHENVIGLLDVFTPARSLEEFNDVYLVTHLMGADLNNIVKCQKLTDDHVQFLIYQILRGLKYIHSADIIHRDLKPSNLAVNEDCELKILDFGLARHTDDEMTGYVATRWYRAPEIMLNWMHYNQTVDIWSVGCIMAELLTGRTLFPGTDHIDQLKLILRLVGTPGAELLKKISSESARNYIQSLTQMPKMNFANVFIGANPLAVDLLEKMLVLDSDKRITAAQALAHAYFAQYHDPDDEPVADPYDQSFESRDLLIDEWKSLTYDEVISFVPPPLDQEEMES
Chain of MAP kinase-activated protein kinase 2 (P49137 whole entry): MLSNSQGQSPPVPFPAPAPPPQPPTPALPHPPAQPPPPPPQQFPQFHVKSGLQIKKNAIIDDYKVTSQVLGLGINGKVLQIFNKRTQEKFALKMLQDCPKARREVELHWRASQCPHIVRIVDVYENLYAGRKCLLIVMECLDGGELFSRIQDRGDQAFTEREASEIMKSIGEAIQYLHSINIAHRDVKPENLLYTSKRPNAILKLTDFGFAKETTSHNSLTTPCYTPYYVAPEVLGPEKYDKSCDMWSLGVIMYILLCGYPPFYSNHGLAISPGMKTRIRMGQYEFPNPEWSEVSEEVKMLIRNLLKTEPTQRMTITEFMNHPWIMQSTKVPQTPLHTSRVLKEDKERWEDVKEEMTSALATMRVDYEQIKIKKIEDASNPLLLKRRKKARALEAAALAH
Chain of Serine/threonine-protein kinase PLK1 (P53350 whole entry): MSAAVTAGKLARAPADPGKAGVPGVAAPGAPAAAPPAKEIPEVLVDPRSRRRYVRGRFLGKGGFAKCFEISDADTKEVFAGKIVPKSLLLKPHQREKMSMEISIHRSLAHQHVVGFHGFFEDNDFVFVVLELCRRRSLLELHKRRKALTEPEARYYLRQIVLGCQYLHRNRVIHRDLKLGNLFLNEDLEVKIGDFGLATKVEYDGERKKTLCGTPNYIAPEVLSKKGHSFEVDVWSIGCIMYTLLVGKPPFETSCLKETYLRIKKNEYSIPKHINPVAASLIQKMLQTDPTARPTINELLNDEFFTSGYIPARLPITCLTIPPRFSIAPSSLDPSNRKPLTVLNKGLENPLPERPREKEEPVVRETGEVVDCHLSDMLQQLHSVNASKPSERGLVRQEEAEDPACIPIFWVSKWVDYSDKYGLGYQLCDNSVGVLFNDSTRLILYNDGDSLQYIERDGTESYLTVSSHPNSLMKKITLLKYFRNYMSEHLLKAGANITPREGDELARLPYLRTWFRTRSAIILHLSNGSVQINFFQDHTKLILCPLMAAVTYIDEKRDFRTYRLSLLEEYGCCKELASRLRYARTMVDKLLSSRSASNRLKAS
Chain of Protein kinase C delta type (Q05655 whole entry): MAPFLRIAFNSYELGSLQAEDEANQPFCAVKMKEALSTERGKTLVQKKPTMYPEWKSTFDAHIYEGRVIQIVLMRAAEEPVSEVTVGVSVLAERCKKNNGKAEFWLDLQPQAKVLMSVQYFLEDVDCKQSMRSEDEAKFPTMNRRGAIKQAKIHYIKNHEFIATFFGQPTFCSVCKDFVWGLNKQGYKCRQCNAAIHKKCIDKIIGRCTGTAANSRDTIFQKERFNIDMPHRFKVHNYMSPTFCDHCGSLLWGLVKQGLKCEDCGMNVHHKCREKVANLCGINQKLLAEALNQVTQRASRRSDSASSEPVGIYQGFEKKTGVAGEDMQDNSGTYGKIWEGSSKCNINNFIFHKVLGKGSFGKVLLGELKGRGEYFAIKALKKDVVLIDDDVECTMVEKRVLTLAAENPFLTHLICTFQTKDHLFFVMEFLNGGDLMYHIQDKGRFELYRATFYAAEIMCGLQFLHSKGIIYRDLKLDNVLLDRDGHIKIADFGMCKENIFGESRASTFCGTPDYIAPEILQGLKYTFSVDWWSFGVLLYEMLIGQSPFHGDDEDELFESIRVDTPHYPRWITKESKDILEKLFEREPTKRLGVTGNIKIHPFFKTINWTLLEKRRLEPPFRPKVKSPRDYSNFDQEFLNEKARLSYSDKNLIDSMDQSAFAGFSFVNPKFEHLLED
Chain of Cytochrome P450 2C9 (P11712 whole entry): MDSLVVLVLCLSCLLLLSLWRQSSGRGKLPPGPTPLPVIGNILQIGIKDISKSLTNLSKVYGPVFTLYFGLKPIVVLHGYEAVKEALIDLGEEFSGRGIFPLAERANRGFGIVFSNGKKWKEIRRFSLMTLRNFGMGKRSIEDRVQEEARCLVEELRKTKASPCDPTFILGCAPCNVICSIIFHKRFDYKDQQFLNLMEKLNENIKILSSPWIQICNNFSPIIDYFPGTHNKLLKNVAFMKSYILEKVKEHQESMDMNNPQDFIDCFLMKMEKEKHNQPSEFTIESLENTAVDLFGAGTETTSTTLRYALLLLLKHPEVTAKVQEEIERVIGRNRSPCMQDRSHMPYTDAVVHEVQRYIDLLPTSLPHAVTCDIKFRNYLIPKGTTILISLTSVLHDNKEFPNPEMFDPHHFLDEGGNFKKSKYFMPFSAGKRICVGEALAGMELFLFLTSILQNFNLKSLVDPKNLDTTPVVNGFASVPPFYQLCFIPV
Chain of Diacylglycerol O-acyltransferase 1 (O75907 whole entry): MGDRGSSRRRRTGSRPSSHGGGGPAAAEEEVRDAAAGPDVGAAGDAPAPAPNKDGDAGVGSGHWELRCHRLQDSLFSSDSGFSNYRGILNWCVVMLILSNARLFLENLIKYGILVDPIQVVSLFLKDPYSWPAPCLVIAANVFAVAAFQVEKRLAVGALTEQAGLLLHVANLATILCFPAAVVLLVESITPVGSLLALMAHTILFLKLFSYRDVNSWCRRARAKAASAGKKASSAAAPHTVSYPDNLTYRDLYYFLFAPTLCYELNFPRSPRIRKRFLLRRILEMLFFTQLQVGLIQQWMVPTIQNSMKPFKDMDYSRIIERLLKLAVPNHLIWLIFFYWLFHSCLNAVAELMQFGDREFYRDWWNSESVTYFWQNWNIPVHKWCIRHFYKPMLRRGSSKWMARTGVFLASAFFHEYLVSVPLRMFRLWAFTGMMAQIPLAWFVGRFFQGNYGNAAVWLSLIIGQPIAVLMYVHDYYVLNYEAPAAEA
Chain of Signal transducer and activator of transcription 3 (P40763 whole entry): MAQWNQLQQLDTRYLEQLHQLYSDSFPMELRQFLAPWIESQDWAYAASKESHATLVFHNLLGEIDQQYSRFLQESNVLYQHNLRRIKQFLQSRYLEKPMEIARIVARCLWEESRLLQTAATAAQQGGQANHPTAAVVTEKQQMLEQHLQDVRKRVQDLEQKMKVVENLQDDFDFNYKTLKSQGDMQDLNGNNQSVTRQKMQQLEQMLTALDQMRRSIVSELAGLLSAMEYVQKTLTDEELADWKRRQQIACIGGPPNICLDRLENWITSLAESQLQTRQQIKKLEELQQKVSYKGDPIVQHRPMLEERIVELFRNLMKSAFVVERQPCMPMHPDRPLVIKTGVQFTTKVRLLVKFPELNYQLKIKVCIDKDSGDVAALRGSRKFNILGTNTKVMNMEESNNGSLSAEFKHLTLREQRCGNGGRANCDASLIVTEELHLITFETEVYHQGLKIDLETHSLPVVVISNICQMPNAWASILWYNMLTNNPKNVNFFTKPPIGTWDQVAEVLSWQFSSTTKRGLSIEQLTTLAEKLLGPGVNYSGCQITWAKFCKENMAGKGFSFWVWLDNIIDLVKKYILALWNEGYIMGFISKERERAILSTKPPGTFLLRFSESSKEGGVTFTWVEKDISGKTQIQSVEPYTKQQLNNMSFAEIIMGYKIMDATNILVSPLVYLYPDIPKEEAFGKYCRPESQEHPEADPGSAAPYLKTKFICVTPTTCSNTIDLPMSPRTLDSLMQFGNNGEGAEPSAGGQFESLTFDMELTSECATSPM
Chain of Cytochrome P450 3A4 (P08684 whole entry): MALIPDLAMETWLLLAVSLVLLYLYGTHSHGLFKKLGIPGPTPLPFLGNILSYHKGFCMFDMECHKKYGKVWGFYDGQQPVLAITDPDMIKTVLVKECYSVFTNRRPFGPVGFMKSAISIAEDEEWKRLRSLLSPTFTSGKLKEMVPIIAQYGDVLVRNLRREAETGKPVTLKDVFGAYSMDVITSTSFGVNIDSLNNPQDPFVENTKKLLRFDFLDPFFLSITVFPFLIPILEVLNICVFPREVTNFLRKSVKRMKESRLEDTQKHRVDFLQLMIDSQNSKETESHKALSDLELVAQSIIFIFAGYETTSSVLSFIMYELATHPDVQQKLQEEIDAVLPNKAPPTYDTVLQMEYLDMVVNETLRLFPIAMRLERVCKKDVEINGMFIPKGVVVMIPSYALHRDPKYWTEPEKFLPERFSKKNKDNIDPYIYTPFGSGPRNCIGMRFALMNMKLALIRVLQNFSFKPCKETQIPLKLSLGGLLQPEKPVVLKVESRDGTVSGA

SMILES: CCn1nccc1NC(=O)c1ccc(C)c(NC(=O)c2cnn(-c3ccc(F)cc3)c2N)c1
IC50 (PBMC): 2 nM
IC50 [1]: 2 nM

SMILES: CCNc1c(C(=O)Nc2cc(C(=O)Nc3ccon3)ccc2C)cnn1-c1ccccc1C
IC50 (PBMC): 1 nM
IC50 [1]: 5 nM

SMILES: CCNc1c(C(=O)Nc2cc(C(=O)Nc3ccon3)ccc2C)cnn1-c1ccccn1
IC50 (PBMC): 30 nM
IC50 [1]: 4 nM

SMILES: Cc1ccc(C(=O)Nc2ccon2)cc1NC(=O)c1cnn(-c2ccccc2)c1N
IC50 (PBMC): 1 nM

SMILES: CCCCn1ncc(C(=O)Nc2cc(C(=O)Nc3ccon3)ccc2C)c1N
IC50 (PBMC): 2 nM
IC50 [1]: 2 nM

SMILES: CCn1nccc1NC(=O)c1ccc(C)c(NC(=O)c2cnn(-c3ccccc3F)c2N)c1
IC50 (PBMC): 5 nM
IC50 [1]: 3 nM

SMILES: CCNC(=O)c1ccc(C)c(NC(=O)c2cnn(-c3ccccc3)c2N)c1
IC50 (PBMC): 16 nM
IC50 [1]: 8 nM

SMILES: Cc1ccc(C(=O)Nc2ccon2)cc1NC(=O)c1cnn(-c2ccccn2)c1N
IC50 (PBMC): 8 nM
IC50 [1]: 2 nM

SMILES: Cc1ccc(C(=O)Nc2ccnn2C)cc1NC(=O)c1cnn(-c2ccccc2)c1N
IC50 (PBMC): 5 nM
IC50 [1]: 7 nM

SMILES: CNc1c(C(=O)Nc2cc(C(=O)Nc3ccon3)ccc2C)cnn1-c1ccccc1
IC50 (PBMC): 7 nM
IC50 [1]: 5 nM

Continued, in another order:

IC50 [1]: 7 nM
SMILES: CCCCn1ncc(C(=O)Nc2cc(C(=O)Nc3ccnn3C)ccc2C)c1N
IC50 (PBMC): 17 nM

IC50 [1]: 7 nM
SMILES: Cc1ccc(C(=O)NC2CC2)cc1NC(=O)c1cnn(-c2ccccc2)c1N
IC50 (PBMC): 26 nM

IC50 [1]: 6 nM
SMILES: CCNC(=O)c1ccc(C)c(NC(=O)c2cnn(-c3ccccc3)c2NCC)c1
IC50 (PBMC): 15 nM

IC50 [1]: 14 nM
SMILES: CNC(=O)c1ccc(C)c(NC(=O)c2cnn(-c3ccccc3)c2N)c1
IC50 (PBMC): 48 nM

IC50 [1]: 2 nM
SMILES: Cc1ccc(C(=O)Nc2ccon2)cc1NC(=O)c1cnn(-c2ccc(F)cc2)c1N
IC50 (PBMC): 2 nM

IC50 [1]: 4 nM
SMILES: Cc1ccc(C(=O)Nc2ccnn2C)cc1NC(=O)c1cnn(-c2ccccc2F)c1N
IC50 (PBMC): 2 nM

IC50 [1]: 5 nM
SMILES: CCn1nccc1NC(=O)c1ccc(C)c(NC(=O)c2cnn(-c3ccccc3)c2N)c1
IC50 (PBMC): 8 nM

metabolic rate at 10 min, 3 µM [2]: 0.001 nmol/min/mg
IC50 [3]: > 40000 nM
IC50 [4]: > 10000 nM
IC50 [5]: > 50000 nM
IC50 [6]: > 15000 nM
IC50 [7]: > 50000 nM
IC50 [8]: > 40000 nM
IC50 [9]: > 50000 nM
IC50 (Cytochrome P450 2C9): 23000 nM
IC50 (Cytochrome P450 2C19): > 13000 nM
metabolic rate at 10 min, 3 µM [10]: 0 nmol/min/mg
IC50 [11]: > 50000 nM
metabolic rate at 10 min, 3 µM [12]: 0 nmol/min/mg
IC50 [13]: > 10000 nM
IC50 [14]: > 20000 nM
IC50 (Cytochrome P450 1A2): > 40000 nM
IC50 [15]: > 50000 nM
Papp [16]: 23.1 ×10⁻⁶ cm/s
IC50 [17]: > 30000 nM
IC50 [1]: 2 nM
solubility [19]: 33 µg/mL (≈ 78.5 µM)
IC50 [20]: > 5000 nM
IC50 [21]: 9200 nM
IC50 (Cytochrome P450 3A4): > 40000 nM
IC50 [22]: > 5000 nM
IC50 [23]: > 50000 nM
IC50 [24]: > 15000 nM
IC50 [25]: > 50000 nM
IC50 [26]: > 20000 nM
IC50 (Cytochrome P450 2D6): > 40000 nM
IC50 [27]: > 13000 nM
SMILES: Cc1ccc(C(=O)Nc2ccon2)cc1NC(=O)c1cnn(-c2ccccc2F)c1N
inhibition in vivo at 5 mg/kg (Mus musculus): > 75%
IC50 [18]: > 160000 nM
IC50 (PBMC): 1 nM
